Test results reported in ChEMBL document CHEMBL4024702, “Covalent Modifiers: A Chemical Perspective on the Reactivity of α,β-Unsaturated Carbonyls with Thiols via Hetero-Michael Addition Reactions” (J Med Chem, 2017).

Assays:
518A2 = experiment: Cytotoxicity against human 518A2 cells assessed as reduction in cell viability after 96 hrs by SRB asssay; assay type: functional, cell-based; details: 518A2, 96 h
A-431 = experiment: Cytotoxicity against human A431 cells assessed as reduction in cell viability after 96 hrs by SRB asssay; assay type: functional, cell-based; details: A-431, 96 h
A549 = experiment: Cytotoxicity against human A549 cells assessed as reduction in cell viability after 96 hrs by SRB asssay; assay type: functional, cell-based; details: A549, 96 h
HT-29 = experiment: Cytotoxicity against human HT-29 cells assessed as reduction in cell viability after 96 hrs by SRB asssay; assay type: functional, cell-based; details: HT-29, 96 h
MCF7 = experiment: Cytotoxicity against human MCF7 cells assessed as reduction in cell viability after 96 hrs by SRB asssay; assay type: functional, cell-based; details: MCF7, 96 h
[1] = Thiol reactivity of the compound in DMSO/PBS buffer assessed as adduct formation by measuring half life of parent compound by 1H NMR analysis; assay type: physicochemical
[2] = Glutathione reactivity of the compound in DMSO and phosphate buffer assessed as second order rate constant for adduct formation
[3] = Cysteamine reactivity of the compound in TRIS-HCL assessed as second order rate constant at 40 uM and pH 7.4
rhinovirus B14 [4] = experiment: Irreversible inhibition of human rhinovirus serotype 14 3C protease assessed as ratio of Kobs/I by spectrofluorimetric analysis
rhinovirus B14 [5] = experiment: Antiviral activity against rhinovirus serotype 14 infected in human H1HeLa cells after 2 days by XTT/PMS dye based assay; assay type: functional, cell-based; details: Rhinovirus B, H1-HeLa, 48 h
[6] = Cytotoxicity against human H1HeLa cells after 2 days by XTT/PMS dye based assay; assay type: cell-based, H1-HeLa
[7] = Thiol reactivity of the compound in PBS/DMSO buffer assessed as pseudo-first order rate constant for adduct formation
[8] = Cysteine reactivity of the compound assessed as second order rate constant by 1H NMR analysis
[9] = Glutathione reactivity of the compound in PBS buffer assessed as rate constant for 1,4-adduct formation at pH 7.4

## CC1=CC[C@]23O[C@@]2(C)CC[C@@H]2[C@H](OC(=O)[C@H]2CSCCO)[C@@H]13
518A2
  IC50: 16.9 µM
A-431
  IC50: 12.8 µM
A549
  IC50: 12.8 µM
HT-29
  IC50: 18.6 µM
MCF7
  IC50: 17.3 µM

## Cc1csc(C(C#N)C(SCCO)C2CC2)n1 (stereo not given)
[1]
  t1/2: 4.8 min

## C=C(C)C=O
[2]
  K: 203 M⁻¹ s⁻¹

## CC1=CC[C@]23O[C@@]2(C)CC[C@@H]2[C@H](OC(=O)[C@H]2CN2CCNCC2)[C@@H]13
518A2
  IC50: 15 µM
A-431
  IC50: 4.4 µM
A549
  IC50: 15.7 µM
HT-29
  IC50: 15.1 µM
MCF7
  IC50: 15.1 µM

## O=C(/C=C/c1ccccc1)c1ccccc1
[3]
  K: 3 M⁻¹ s⁻¹

## COc1ccc(C(=O)CC(SCCN)c2ccc(OC)c(OC)c2)c(OC)c1 (stereo not given)
[3]
  K: 0.19 M⁻¹ s⁻¹

## CCCCC/C=C/C=O
[2]
  K: 18 M⁻¹ s⁻¹

## CC(=O)/C=C/[C@H](CCC(N)=O)NC(=O)[C@H](Cc1ccccc1)NC(=O)[C@H](CC(C)C)NC(=O)OCc1ccccc1
Rhinovirus B14 [4]
  Ratio: 54000 M⁻¹ s⁻¹
Rhinovirus B14 [5]
  EC50: 2 µM
[6]
  CC50 at 48 h: 60 µM

## C=CC(=O)Nc1ccc([N+](=O)[O-])cc1
[7]
  K: 8 ×10⁻² /s

## N#CC(c1ccncc1)C(SCCO)C1CC1 (stereo not given)
[1]
  t1/2: 11.9 min

## C=CS(=O)(=O)Nc1ccccc1
[7]
  K: 7.2 ×10⁻² /s

## CC(=O)C=C(C)C
[2]
  K: 0.208 M⁻¹ s⁻¹

## COc1ccc(C(=O)C(c2ccc([N+](=O)[O-])cc2)C(SCCN)c2ccc(OC)c(OC)c2)c(OC)c1 (stereo not given)
[3]
  K: 0.29 M⁻¹ s⁻¹

## COc1ccc(C(=O)C(c2ccccc2)C(SCCN)c2ccc(OC)c(OC)c2)c(OC)c1 (stereo not given)
[3]
  K: 0.0067 M⁻¹ s⁻¹

## COC(=O)/C=C/CNC(=O)c1ccc([N+](=O)[O-])cc1
[7]
  K: 5.9 ×10⁻⁴ /s

## COC(=O)/C=C/CNC(=O)c1ccc(OC)cc1
[7]
  K: 3.7 ×10⁻⁴ /s

## O=C/C=C/c1ccccc1
[3]
  K: 0.64 M⁻¹ s⁻¹

## C=C1C(=O)O[C@@H]2[C@H]3C(C)=CC[C@@]34O[C@@]4(C)CC[C@@H]12 [ARGLABIN]
518A2
  IC50: 6.72 µM
A-431
  IC50: 4.48 µM
A549
  IC50: 2.21 µM
HT-29
  IC50: 7 µM
MCF7
  IC50: 2.33 µM

## CCOC(=O)/C(C)=C/[C@H](CCC(N)=O)NC(=O)[C@H](Cc1ccccc1)NC(=O)[C@H](CC(C)C)NC(=O)OCc1ccccc1
Rhinovirus B14 [4]
  Ratio: 7300 M⁻¹ s⁻¹
Rhinovirus B14 [5]
  EC50: 3 µM
[6]
  CC50 at 48 h: > 320 µM

## NC(=O)CI
[8]
  K: 25 M⁻¹ s⁻¹

## C/C=C/C(C)=O
[2]
  K: 26.7 M⁻¹ s⁻¹

## CCOC(=O)C(C(=O)c1ccc(OC)cc1OC)C(SCCN)c1ccc(OC)c(OC)c1 (stereo not given)
[3]
  K: 0.28 M⁻¹ s⁻¹

## N[C@@H](CCC(=O)N[C@@H](CSCCC=O)C(=O)NCC(=O)O)C(=O)O
[9]
  K: 120 M⁻¹ s⁻¹

## CC1=CCCC1=O
[2]
  K: 0.2 M⁻¹ s⁻¹

## CCOC(=O)/C(F)=C/[C@H](CCC(N)=O)NC(=O)[C@H](Cc1ccccc1)NC(=O)[C@H](CC(C)C)NC(=O)OCc1ccccc1
Rhinovirus B14 [4]
  Ratio: 60 M⁻¹ s⁻¹
Rhinovirus B14 [5]
  EC50: > 320 µM
[6]
  CC50 at 48 h: > 320 µM

## CC/C=C/C=O
[2]
  K: 28.3 M⁻¹ s⁻¹

## CC(C)C[C@H](NC(=O)OCc1ccccc1)C(=O)N[C@@H](Cc1ccccc1)C(=O)N[C@H](/C=C/C(=O)c1ccc([N+](=O)[O-])cc1)CCC(N)=O
Rhinovirus B14 [4]
  Ratio: 310000 M⁻¹ s⁻¹
Rhinovirus B14 [5]
  EC50: > 32 µM
[6]
  CC50 at 48 h: 32 µM

## N#CC(C(N)=O)C(SCCO)c1ccccc1 (stereo not given)
[1]
  t1/2: < 1 min

## CC(C)C[C@H](NC(=O)OCc1ccccc1)C(=O)N[C@@H](Cc1ccccc1)C(=O)N[C@H](/C=C/C(=O)c1ccccc1)CCC(N)=O
Rhinovirus B14 [4]
  Ratio: 500000 M⁻¹ s⁻¹
Rhinovirus B14 [5]
  EC50: 4 µM
[6]
  CC50 at 48 h: 16 µM

## C=CC#CC(C)=O
[2]
  K: 80 M⁻¹ s⁻¹

## C/C=C(\C)C(C)=O
[2]
  K: 0.779 M⁻¹ s⁻¹

## C/C=C/C(=O)OC
[2]
  K: 0.164 M⁻¹ s⁻¹

## C=CC(=O)OCCCC
[2]
  K: 8.54 M⁻¹ s⁻¹

## C=CC(=O)Nc1ccc(OC)cc1
[7]
  K: 3.9 ×10⁻⁵ /s

## COc1ccc(C(=O)C(C(=O)O)C(SCCN)c2ccc(OC)c(OC)c2)c(OC)c1 (stereo not given)
[3]
  K: 0.0037 M⁻¹ s⁻¹

## CC(CC=O)SC[C@H](NC(=O)CC[C@H](N)C(=O)O)C(=O)NCC(=O)O (stereo not given in full)
[9]
  K: 0.78 M⁻¹ s⁻¹

## C/C=C(\C)C(=O)OC
[2]
  K: 0.007 M⁻¹ s⁻¹

## C=CS(=O)(=O)Nc1ccc(OC)cc1
[7]
  K: 2.8 ×10⁻² /s

## CCCCC/C=C/C(=O)OC
[2]
  K: 0.785 M⁻¹ s⁻¹

## COc1cc(/C=C/C(=O)CC(=O)/C=C/c2ccc(O)c(OC)c2)ccc1O
[3]
  K: 0.066 M⁻¹ s⁻¹

## COC(=O)/C=C\[C@H](CCC(N)=O)NC(=O)[C@H](Cc1ccccc1)NC(=O)[C@H](CC(C)C)NC(=O)OCc1ccccc1
Rhinovirus B14 [4]
  Ratio: 2400 M⁻¹ s⁻¹
Rhinovirus B14 [5]
  EC50: 4.2 µM
[6]
  CC50 at 48 h: > 320 µM
